Measurements: patent publication US20100324017A1, “ACYLGUANIDINE DERIVATIVE” (priority 2007, published 2010)

Legend:
[1] = test system: scopolamine-induced spontaneous alternation behavior disorder; experiment: Scopolamine-induced spontaneous alternation behavior disorder in mice (Y-maze); format: in vivo; conditions: mouse, oral, dose 0.003 mg/kg; scopolamine 0.5 mg/kg i.p.
Protocol: An Improvement Effect for Scopolamine-Induced or MK-801-Induced Spontaneous Alternation Behavior in Mice
An improvement effect of the compound (I) for cognitive impairment was evaluated by the above-described well-known test method as a model of a short-term learning disorder.
Species: Male ddY mice/number of animals (number of animals per group): 6 to 10 animals per group
A mouse was introduced into the laboratory 1 hour before starting the test. The mouse was placed at one end of an arm in a Y-maze having equal lengths of arms in three directions, and was able freely explored for 8 minutes with the number of the entries into the arms were counted. Furthermore, a spontaneous alternation behavior was defined as consecutive entries into each of the three arms, and an alternation rate was defined as the percentage of the number of time of this behavior relative to the total number of the entries, and calculated by the following equation.
Alternation rate (%)=(number of spontaneous alternation behaviors/total number of entries−2)×100.
The compound to be tested was orally administered 50 minutes before the initiation of the test, and 30 minutes later, 0.5 mg/kg of scopolamine or 0.15 mg/kg of MK-801 (in the normal group, physiological saline) was intraperitoneally administered. Furthermore, for the normal group (the group administered with physiological saline) and the control group (the group administered with 0.5 mg/kg scopolamine or 0.15 mg/kg MK-801), a solvent (vehicle) was orally administered when the compound to be tested was administered. For the normal group, physiological saline was intraperitoneally administered when scopolamine was administered.
The alternation rate (%) is expressed as an average value in each group (mean±SE). In regard to the alternation rate (%), in the case where a significant difference between the normal group and the control group (Student's T test) was found, it was considered that there was an establishment of learning disorder by the administration of scopolamine or MK-801. By carrying out the Dunnett evaluation for the group administered with the compound to be tested relative to the control group, the presence or absence of the learning disorder action of the compound to be tested was determined. In each evaluation, it was considered that there was a tendency at p<0.10, and there was a significant difference at p<0.05.

[2] = molecular target: T1, human 5-HT5A receptor (Homo sapiens, UniProt P47898); experiment: Test of human 5-HT5A receptor binding inhibition ([3H]5-CT, HEK293 cell membrane); conditions: [3H]5-CT binding, membrane of HEK293 cell expressing human 5-HT5A receptor
T1 construct: expressed in transfected cells; membrane preparation
T1 sequence (P47898 whole entry): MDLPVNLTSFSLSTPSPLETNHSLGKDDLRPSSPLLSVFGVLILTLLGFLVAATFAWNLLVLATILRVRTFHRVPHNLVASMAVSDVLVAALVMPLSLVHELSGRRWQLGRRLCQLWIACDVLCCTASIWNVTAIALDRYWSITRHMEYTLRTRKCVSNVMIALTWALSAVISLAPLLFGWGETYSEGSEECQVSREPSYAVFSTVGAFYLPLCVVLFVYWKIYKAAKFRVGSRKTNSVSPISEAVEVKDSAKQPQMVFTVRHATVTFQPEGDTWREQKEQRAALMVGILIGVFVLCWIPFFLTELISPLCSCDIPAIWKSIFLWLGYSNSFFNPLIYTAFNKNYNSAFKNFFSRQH
Protocol: An ORF of a human 5-HT5A receptor (Genbank AF498985) was cloned from a human hippocampal cDNA library, and then inserted into a pCR2.1 vector (Invitrogen), and Escherichia coli having the plasmid was mass cultured. Next, the human 5-HT5A receptor full-length cDNA sequence was analyzed, recombined into a pCDNA3.1 vector (Invitrogen) as an expression vector, and mass cultured. A human embryonic kidney-induced cell HEK293 cell (ATCC) was seeded, and the resulting expression plasmid (1 μg) above was added thereto together with LIPOFECTAMINE 2000 (Invitrogen; 2 μl), a gene was introduced into the HEK293 cell, and then Geneticin (G418 sulfate 500 μg/ml; Kanto Chemical Co., Inc.) was used as a drug-resistant marker to screen the expressing cell. Thus prepared gene-expressing recombinant cell was cultured in a D-MEM, 10% FCS, 1% Pc./Sm., 500 μg/ml G418 culture medium for 3 days. This experimental operation was conducted in accordance with a gene operation experiment manual of a known method (Sambrook, J. et al, Molecular Cloning-A Laboratory Manual“, Cold Spring Harabor Laboratory, NY, 1989), etc., an instruction appended in a reagent or the like.
(1) Preparation of a Membrane from an HEK293 Cell Forcibly Expressing a Human 5-HT5A Receptor
An HEK293 cell forcibly expressing a human 5-HT5A receptor was cultured in an F500 plate, and scraped for collection using a scraper. After centrifugation, the precipitates were collected and an incubation buffer (50 mM Tris (HCl) PH 7.4, 10 mM Mg504, 0.5 mM EDTA) was added thereto. After homogenization, it was further centrifuged, an incubation buffer was added to the precipitate, and the mixture was well suspended. These operations were repeatedly conducted, the protein concentration was then measured, and the preparation of a membrane was completed.
(2) Experiment on Human 5-HT5A Receptor Binding Inhibition
The compound to be tested (0.3 to 300 nM) and a 100 μM 5-CT solution in DMSO were added to a 96-well plate at 2 μl/well. The number of the wells to be measured under the same condition in one experiment was set at 2, and an average value thereof was used. It was suspended in an incubation buffer, and a HEK293 cell membrane forcibly expressing a human 5-HT5A receptor that had been prepared at 200 μg/ml was added thereto at 100 μl/well. The mixture was incubated at room temperature for 15 minutes, and a [^3H]5-CT solution (2 nM [^3H]5-CT, an incubation buffer) was then added thereto at 100 μl/well.
Separate from this, 100 μl of the solution was dispersed to a liquid scintillation vial, 2 ml of Aquasol II (registered trademark) was added thereto, followed by stirring, and the radioactivity was then measured with a liquid scintillation counter. The solution was incubated at 37° C. for 60 minutes. The reaction liquid was sucked to a 96-well GF/C filter plate that had been preliminarily treated with 0.2% polyethyleneimine, and washed six times with an ice-cooled 50 mM Tris (pH 7.5) buffer. The GF/C filter plate was dried.
MicroscintTMPS (registered trademark) was added thereto at 40 μl/well. The radioactivity remaining on the GF/C filter plate was measured in a top counter.
For the inhibitory activity for the binding of the [^3H]5-CT by the compound to be tested in each experiment, IC50 value was calculated by taking the radioactivity when only DMSO was added as 0% inhibition, and the radioactivity when 1 μM 5-CT was added as 100% inhibition. Apart from this, a Ki value was calculated from the Kd value of the [^3H]5-CT that had been determined by Scatchard analysis.
Ki=IC50 (1+Concentration of the ligands added/Kd (4.95 nM))

Ki [2] [nM]	Compound	inhibition of scopolamine-induced spontaneous alternation behavior disorder [1]
0.51	NC(N)=NC(=O)c1ccc2c3ccccc3n(C3CCOCC3)c2c1 [Example 25]	significantly inhibited
≤ 50	CC(C)n1c2cc(C(=O)N=C(N)N)ccc2c2c(CO)cccc21 [Example 65]	significantly inhibited
